Measurements reported in patent publication US20040259173A1, “Method of determining target protein of drug” (priority 2001, published 2004).

How the values were obtained:
[1] = test system: proteins in cell lysate of HCT116; assay: Protease digestion assay of HCT116 cell lysate, SDS-PAGE with Coomassie Brilliant Blue staining; type: biochemical, human; settings: UCS15A 0-300 μmol/L, 37° C. for 12 hours, endogenous protease
Protocol: (§1) By using Dulbecco's modification of Eagle's medium (DMEM) containing 10% fetal bovine serum, human colon tumor cell line HCT116 (ATCC number CCL-247) was cultured on 100 mm diameter dishes for cell culturing in a CO2 incubator at 37° C. under 5% CO2 condition, and proliferated by subculture with division into five portions every 3 days. The culture medium was removed from three HCT116 cell dishes on the third day from the subculture, and cells were washed by addition and successive removal of 10 ml of ice-cooled PBS. To these cells, 10 mL of RSB (10 mmol/L Tris-hydrochloride pH7.6, 10 mmol/L NaCl, 1.5 mmol/L MgCl2) having a low osmotic pressure was added. After the cells were put on ice for 10 minutes to allow expansion, the cells were detached from the dishes and put into 15 mL volume Dounce homogenizer together with the already added RBS. The cells were disrupted by 50 strokes of a pestle. This cell lysate was centrifuged at 4° C., 15,000 rpm for 30 minutes. The obtained supernatant was collected, and divided into ten 1 mL aliquots.
UCS15A was isolated and purified from Streptmyces actinobacterium, according to the descriptions in Japanese Published Unexamined Patent Application No. 58-116686, and a dimethylsulfoxide (DMSO) solution at a concentration of 10 mmol/L was prepared. […]

src and Sam68 = src and Sam68 (Homo sapiens, UniProt Q07666); settings: cited from earlier work
src and Sam68, sequence (Q07666 whole entry, species assumed): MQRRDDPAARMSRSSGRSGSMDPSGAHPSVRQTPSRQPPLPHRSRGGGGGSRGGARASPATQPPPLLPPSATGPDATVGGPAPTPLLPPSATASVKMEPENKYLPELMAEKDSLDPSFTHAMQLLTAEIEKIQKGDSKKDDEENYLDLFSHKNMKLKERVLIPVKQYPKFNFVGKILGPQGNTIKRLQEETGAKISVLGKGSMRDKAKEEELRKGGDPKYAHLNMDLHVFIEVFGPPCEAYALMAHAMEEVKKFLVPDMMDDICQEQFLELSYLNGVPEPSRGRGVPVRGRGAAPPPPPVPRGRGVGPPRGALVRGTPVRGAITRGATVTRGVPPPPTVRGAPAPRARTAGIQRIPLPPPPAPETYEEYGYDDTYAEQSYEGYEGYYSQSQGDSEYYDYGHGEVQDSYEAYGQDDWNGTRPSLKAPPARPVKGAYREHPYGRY

bone resorption = settings: cited from earlier work
Sam68 = molecular target: T1, Sam68 (Homo sapiens, UniProt Q07666); assay: Protease digestion assay with specific detection of Sam68 by Western blotting; type: biochemical; settings: HCT116 cell lysate, 37° C. for 12 hours
T1 construct: endogenous in cells; host or cells: HCT116 (ATCC CCL-247) cell lysate
T1 sequence (Q07666 whole entry): as the sequence (Q07666 whole entry, species assumed) above
Protocol: as §1, with “The obtained supernatant was collected, and divided into ten 1 mL aliquots.” left out
Sam68 in the cell lysate was detected by Western blotting as described below. […]
When the protease digestion assay described in (2) was conducted, a protease inhibitor cocktail (Complete; manufactured by Roche) which can inhibit wide variety of proteases was added along with UCS15A, and the same reaction was proceeded. After the electrophoresis, Sam68 was detected by Western blotting in a same manner to that of (3). […]

[2] = test system: signal transduction of tyrosine kinase src; settings: cited from earlier work
src = src (Homo sapiens, UniProt P12931); settings: cited from earlier work

For UCS15A, the “change of protein amounts in the cell lysate (Coomassie Brilliant Blue stained gel)” value [1] is given as “Several proteins, which decreased their amounts with the increase of UCS15A concentration, were observed”, the “inhibition of binding between src and Sam68” value (src and Sam68) is given as “specifically inhibit the binding between src and Sam68” and the “inhibitory activity on bone resorption” value (bone resorption) is given as “has an inhibitory activity on bone resorption”. The “amount of Sam68 in the cell lysate (Western blotting)” value (Sam68; UCS15A 0-300 μmol/L, endogenous protease, without protease inhibitor) was “the amount of Sam68 in the cell lysate decreased with the increase of the UCS15A concentration”, the “amount of Sam68 in the cell lysate with protease inhibitor (Western blotting)” value (Sam68; protease inhibitor cocktail (Complete) added along with UCS15A) was “the decrease of the amount of Sam68 in the cell lysate was inhibited by the addition of a protease inhibitor” and the “inhibition of signal transduction of tyrosine kinase src” value [2] was “inhibit the signal transduction of tyrosine kinase src”. The “inhibition of enzyme activity of src” value (src) was “not to inhibit the enzyme activity of src”.
